Data reported in PMC3210919 (Biochemistry, 2011).

How the values were obtained:
[1] = test system: wild-type RePC (pyruvate carboxylase from R. etli); assay: Pyruvate carboxylation activity, malate dehydrogenase coupled assay; assay type: biochemical, Rhizobium etli
[2] = test system: PC from B. Thermodenitrificans; settings: read-out: apparent Km for HCO3^−; presence of acetyl-CoA; ref [32]; cited from earlier work
sheep kidney PC = settings: noncompetitive with respect to MgATP, full forward reaction; ref [22]; cited from earlier work
wild-type RePC = wild-type RePC (Rhizobium etli, UniProt Q2K340); assay type: biochemical
[3] = labelled substrate varied, others saturating, pH 7.5, 25° C, 0.25 mM acetyl-CoA
[4] = extrapolated to saturating phosphonoacetate

SMILES | Km [1, 3] | kcat [1, 3] | Km [2] | type of inhibition with respect to MgATP [1] | Kii (intercept inhibition constant) ([1]; linear noncompetitive with respect to MgATP, eqn (9)) | Ki (sheep kidney PC) | fold lower Kii for MgADP phosphorylation than for pyruvate carboxylation (wild-type RePC) | fold lower Kis for MgADP phosphorylation than for pyruvate carboxylation (wild-type RePC) | type of inhibition with respect to carbamoyl phosphate (wild-type RePC) | V/Km at saturating phosphonoacetate, % of the uninhibited reaction (wild-type RePC; [4]) | Vmax at saturating phosphonoacetate, % of the uninhibited reaction (wild-type RePC; [4]) | Kii (intercept inhibition constant) (wild-type RePC; hyperbolic noncompetitive with respect to carbamoyl phosphate, eqn (10))
O=C(O)O [HCO3^−] | 10.8 ± 0.4 mM | 11.7 ± 0.333 s⁻¹ | 16 mM |  |  |  |  |  |  |  |  | 
O=C(O)CP(=O)(O)O [phosphonoacetate] |  |  |  | noncompetitive | 18 ± 7 mM | 500 µM | 890 fold | 100 fold | hyperbolic, noncompetitive inhibition | 1.5% | 1% | 0.021 ± 0.001 mM
